# Experimental data reported in US4267192A, “Method for treating inflammation” (priority 1980, dated 1981).
# Like-named read-outs stand apart in the source and are kept apart here.
# Columns and labels:
# [1] = test system: carrageenan-induced edema in the hind paw of the rat; experiment: rat carrageenan edema test (hind paw); type: in vivo, rat (male Sprague-Dawley); settings: for Change in paw volume (ml) from 0-3 hr: mean ± S.E.; for % Change in paw edema: vs control
# Procedure: Vehicle alone is administered as a control. Sixty minutes after drug administration edema is induced by an injection of 0.1 ml. of a 1% carrageenan solution is saline into the subplantar tissue of the rat's right hind paw. Two minutes later, paw volume is measured volumetrically with a plethysmograph and again 3 hours later. The mean volume of swelling for the control group is calculated and compared to the test groups. Percent change in paw edema is calculated and analyzed statistically (unpaired, Student's t-test).
# [2] = test system: polyarthritis induced by Mycobacterium butyricum or tuberculosis in rats; settings: for Increase in Left Paw Volume (ml.) 0-16 days / Increase in Right Paw Volume (ml.) 0-4 days: mean ± S.E.
# Procedure: (§1) Polyarthritis is induced in groups of 6-10 Sprague-Dawley rats weighing between 180-220 g. by a subcutaneous injection into the right paw of dessicated Mycobacterium butyricum or tuberculosis (0.5 mg/0.1 ml.) suspended in light mineral oil. […] Both hind paw volumes (ml.) are measured by mercury plethysmograph on day 0 or at the time of injection of the complete adjuvant. Increases in paw volume (viz. edema) are determined for both paws on days 4 and 16. The change in body weight from day 0 to day 16 is also calculated. Statistical analysis of differences in paw edemas and body weight is performed by using the unpaired. Student's t-test.
# [3] = test system: established adjuvant arthritis in rats; experiment: established adjuvant arthritis, dosing on days 16, 17 and 18; settings: rat
# Procedure: as §1
# The changes in left paw edema are measured at the end of 19 days, 23 days and 30 days.
# [4] = test system: adjuvant arthritis in rats; experiment: Adjuvant Arthritis Test, periodic administration (with daily regimen for comparison); settings: rat; for Increase in Paw Volume 0-16 days (left paw) / Increase in Right Paw Volume (ml.) 0-4 days: mean ± S.E.
# Procedure: as §1
# Adjuvant arthritis is induced as described in A. above, but drugs are administered only on days 2, 3, 4 or on days 8, 9, 10.
# [5] = oral 100 mg/kg, Table 1 group a
# [6] = oral 180 mg/kg, Table 1 group c
# [7] = oral 180 mg/kg, Table 1 group e
# [8] = rat, oral 3.0 mg/kg daily, Table 3 group a
# [9] = rat, oral 5.0 mg/kg daily, Table 3 group b
# [10] = rat, oral 10.0 mg/kg daily, Table 3 group a
# [11] = rat, oral 10.0 mg/kg daily, Table 3 group b
# [12] = rat, oral 25.0 mg/kg daily, Table 3 group b
# [13] = rat, oral 30.0 mg/kg daily, Table 3 group a
# [14] = rat, oral 100.0 mg/kg daily, Table 3 group a
# [15] = rat, oral 300.0 mg/kg daily, Table 3 group a
# [16] = oral 2 mg/kg, Daily (0-15) except weekends
# [17] = oral 6 mg/kg, Daily (0-15) except weekends
# [18] = oral 18 mg/kg, Daily (0-15) except weekends
smiles,measurement,setting,value
O=C(O)C=C1c2ccccc2C=Cc2ccccc21 [DCHA],estimated ED50 (carrageenan paw edema),[1]; oral,~80 mg/kg
same,oral doses that inhibit carrageenan paw edema,[1]; oral,10 to 180 mg/kg
same,Change in paw volume (ml) from 0-3 hr,"[1]; oral 3 mg/kg, Table 1 group a",0.63 ± 0.10 mL
same,% Change in paw edema,"[1]; oral 3 mg/kg, Table 1 group a",-18%
same,Change in paw volume (ml) from 0-3 hr,"[1]; oral 10 mg/kg, Table 1 group a",0.61 ± 0.05 mL
same,% Change in paw edema,"[1]; oral 10 mg/kg, Table 1 group a",-21%
same,Change in paw volume (ml) from 0-3 hr,"[1]; oral 10 mg/kg, Table 1 group b",0.53 ± 0.10 mL
same,% Change in paw edema,"[1]; oral 10 mg/kg, Table 1 group b",-48%
same,Change in paw volume (ml) from 0-3 hr,"[1]; oral 20 mg/kg, Table 1 group c",0.84 ± 0.10 mL
same,% Change in paw edema,"[1]; oral 20 mg/kg, Table 1 group c",-16%
same,Change in paw volume (ml) from 0-3 hr,"[1]; oral 20 mg/kg, Table 1 group e",1.08 ± 0.05 mL
same,% Change in paw edema,"[1]; oral 20 mg/kg, Table 1 group e",-6%
same,Change in paw volume (ml) from 0-3 hr,"[1]; oral 30 mg/kg, Table 1 group a",0.48 ± 0.06 mL
same,% Change in paw edema,"[1]; oral 30 mg/kg, Table 1 group a",-38%
same,Change in paw volume (ml) from 0-3 hr,"[1]; oral 30 mg/kg, Table 1 group b",0.58 ± 0.08 mL
same,% Change in paw edema,"[1]; oral 30 mg/kg, Table 1 group b",-43%
same,Change in paw volume (ml) from 0-3 hr,"[1]; oral 60 mg/kg, Table 1 group c",0.47 ± 0.08 mL
same,% Change in paw edema,"[1]; oral 60 mg/kg, Table 1 group c",-53%
same,Change in paw volume (ml) from 0-3 hr,"[1]; oral 60 mg/kg, Table 1 group e",0.82 ± 0.13 mL
same,% Change in paw edema,"[1]; oral 60 mg/kg, Table 1 group e",-29%
same,Change in paw volume (ml) from 0-3 hr,"[1]; oral 90 mg/kg, Table 1 group b",0.44 ± 0.03 mL
same,% Change in paw edema,"[1]; oral 90 mg/kg, Table 1 group b",-57%
same,Change in paw volume (ml) from 0-3 hr,[1]; [5],0.44 ± 0.07 mL
same,% Change in paw edema,[1]; [5],-43%
same,Change in paw volume (ml) from 0-3 hr,[1]; [6],0.49 ± 0.06 mL
same,% Change in paw edema,[1]; [6],-51%
same,Change in paw volume (ml) from 0-3 hr,[1]; [7],0.62 ± 0.04 mL
same,% Change in paw edema,[1]; [7],-46%
same,potency relative to aspirin,"[2]; chronic inflammatory disease mediated mainly through immunological mechanisms, in words",several times more potent than aspirin
same,toxicity at high doses,[2]; in words,no apparent toxicity at high doses
same,% Change of Left Paw Edema at Day 16,[2]; [8],-45%
same,% Change of Right Paw Edema at Day 4,[2]; [8],-15%
same,Change In Body Weight (mean ± S.E.) 0-16 days,[2]; [8],22.5 ± 9.6
same,Increase in Left Paw Volume (ml.) 0-16 days,[2]; [8],0.43 ± .09 mL
same,Increase in Right Paw Volume (ml.) 0-4 days,[2]; [8],1.33 ± .11 mL
same,% Change of Left Paw Edema at Day 16,[2]; [9],-5.4%
same,% Change of Right Paw Edema at Day 4,[2]; [9],-30%
same,Change In Body Weight (mean ± S.E.) 0-16 days,[2]; [9],19.5 ± 5.8
same,Increase in Left Paw Volume (ml.) 0-16 days,[2]; [9],0.70 ± .05 mL
same,Increase in Right Paw Volume (ml.) 0-4 days,[2]; [9],1.30 ± .08 mL
same,% Change of Left Paw Edema at Day 16,[2]; [10],-47%
same,% Change of Right Paw Edema at Day 4,[2]; [10],-55%
same,Change In Body Weight (mean ± S.E.) 0-16 days,[2]; [10],25.6 ± 8.0
same,Increase in Left Paw Volume (ml.) 0-16 days,[2]; [10],0.41 ± .04 mL
same,Increase in Right Paw Volume (ml.) 0-4 days,[2]; [10],0.70 ± .06 mL
same,% Change of Left Paw Edema at Day 16,[2]; [11],-55%
same,% Change of Right Paw Edema at Day 4,[2]; [11],-39%
same,Change In Body Weight (mean ± S.E.) 0-16 days,[2]; [11],33.3 ± 5.5
same,Increase in Left Paw Volume (ml.) 0-16 days,[2]; [11],0.33 ± .06 mL
same,Increase in Right Paw Volume (ml.) 0-4 days,[2]; [11],1.14 ± .04 mL
same,% Change of Left Paw Edema at Day 16,[2]; [12],-47%
same,% Change of Right Paw Edema at Day 4,[2]; [12],-47%
same,Change In Body Weight (mean ± S.E.) 0-16 days,[2]; [12],30.3 ± 5.7
same,Increase in Left Paw Volume (ml.) 0-16 days,[2]; [12],0.39 ± .04 mL
same,Increase in Right Paw Volume (ml.) 0-4 days,[2]; [12],1.00 ± .05 mL
same,% Change of Left Paw Edema at Day 16,[2]; [13],-62%
same,% Change of Right Paw Edema at Day 4,[2]; [13],-58%
same,Change In Body Weight (mean ± S.E.) 0-16 days,[2]; [13],45.8 ± 5.6
same,Increase in Left Paw Volume (ml.) 0-16 days,[2]; [13],0.30 ± .05 mL
same,Increase in Right Paw Volume (ml.) 0-4 days,[2]; [13],0.66 ± .06 mL
same,weight gain,"[2]; rat, oral 100 mg/kg",51 g
same,% Change of Left Paw Edema at Day 16,[2]; [14],-60%
same,% Change of Right Paw Edema at Day 4,[2]; [14],-53%
same,Change In Body Weight (mean ± S.E.) 0-16 days,[2]; [14],50.6 ± 5.4
same,Increase in Left Paw Volume (ml.) 0-16 days,[2]; [14],0.31 ± .05 mL
same,Increase in Right Paw Volume (ml.) 0-4 days,[2]; [14],0.74 ± .08 mL
same,weight gain,"[2]; rat, oral 300 mg/kg",58 g
same,% Change of Right Paw Edema at Day 4,[2]; [15],-58%
same,Change In Body Weight (mean ± S.E.) 0-16 days,[2]; [15],58.2 ± 8.3
same,Increase in Left Paw Volume (ml.) 0-16 days,[2]; [15],0.14 ± .06 mL
same,Increase in Right Paw Volume (ml.) 0-4 days,[2]; [15],0.66 ± .05 mL
same,toxic signs or loss of body weight,"[2]; rat, oral 100 and 300 mg/kg",did not show any toxic signs or loss of body weight
same,anti-inflammatory activity in the adjuvant arthritis test,"[2]; rat, oral, daily",significant anti-inflammatory activity
same,estimated ED50 (adjuvant arthritis test),"[2]; rat, oral, daily",~15 mg/kg
same,"active doses, right paw edema at 4 days (acute, non-specific inflammation)","[2]; rat, orally",10 to 300 mg/kg
same,"effective doses, left paw edema (immunologically induced inflammation)","[2]; rat, orally",3-300 mg/kg
same,return to pretreatment or higher edema levels,"[3]; end of 30 days, 12 days after last dosing",no significant return to pretreatment or even higher edema levels
same,"% Change from Control, left paw edema (day 0-19)","[3]; oral 10 mg/kg, days 16, 17, 18",-20%
same,"% Change from Control, left paw edema (day 0-23)","[3]; oral 10 mg/kg, days 16, 17, 18",-15%
same,"% Change from Control, left paw edema (day 0-30)","[3]; oral 10 mg/kg, days 16, 17, 18",-21%
same,Increase in left paw edema ml. (day 0-19),"[3]; oral 10 mg/kg, days 16, 17, 18",0.78 ± 0.11 mL
same,Increase in left paw edema ml. (day 0-23),"[3]; oral 10 mg/kg, days 16, 17, 18",0.82 ± 0.13 mL
same,Increase in left paw edema ml. (day 0-30),"[3]; oral 10 mg/kg, days 16, 17, 18",1.20 ± 0.16 mL
same,"% Change from Control, left paw edema (day 0-19)","[3]; oral 30 mg/kg, days 16, 17, 18",-26%
same,"% Change from Control, left paw edema (day 0-23)","[3]; oral 30 mg/kg, days 16, 17, 18",-10%
same,"% Change from Control, left paw edema (day 0-30)","[3]; oral 30 mg/kg, days 16, 17, 18",-29%
same,Increase in left paw edema ml. (day 0-19),"[3]; oral 30 mg/kg, days 16, 17, 18",0.75 ± 0.11 mL
same,Increase in left paw edema ml. (day 0-23),"[3]; oral 30 mg/kg, days 16, 17, 18",0.87 ± 0.16 mL
same,Increase in left paw edema ml. (day 0-30),"[3]; oral 30 mg/kg, days 16, 17, 18",1.07 ± 0.17 mL
same,"% Change from Control, left paw edema (day 0-19)","[3]; oral 90 mg/kg, days 16, 17, 18",-42%
same,"% Change from Control, left paw edema (day 0-23)","[3]; oral 90 mg/kg, days 16, 17, 18",-24%
same,"% Change from Control, left paw edema (day 0-30)","[3]; oral 90 mg/kg, days 16, 17, 18",-32%
same,Increase in left paw edema ml. (day 0-19),"[3]; oral 90 mg/kg, days 16, 17, 18",0.59 ± 0.06 mL
same,Increase in left paw edema ml. (day 0-23),"[3]; oral 90 mg/kg, days 16, 17, 18",0.73 ± 0.10 mL
same,Increase in left paw edema ml. (day 0-30),"[3]; oral 90 mg/kg, days 16, 17, 18",1.03 ± 0.11 mL
same,effect on left paw edema of rats with established adjuvant arthritis,"[3]; oral, days 16, 17, 18",significant decrease in the left paw edema
same,activity in short term dosing regimen,"[4]; days 2, 3, 4",less so
same,activity in short term dosing regimen,"[4]; days 8, 9, 10",active
same,% Change of Left Paw Edema at Day 16,[4]; [16],+12%
same,% Change of Right Paw Edema at Day 4,[4]; [16],+17%
same,Change In Body Weight (mean ± S.E.) 0-16 days,[4]; [16],8.9 ± 7.8
same,Increase in Paw Volume 0-16 days (left paw),[4]; [16],0.82 ± 0.18
same,Increase in Right Paw Volume (ml.) 0-4 days,[4]; [16],1.60 ± 0.08 mL
same,% Change of Left Paw Edema at Day 16,[4]; [17],-16%
same,% Change of Right Paw Edema at Day 4,[4]; [17],-24%
same,Change In Body Weight (mean ± S.E.) 0-16 days,[4]; [17],6.0 ± 4.8
same,Increase in Paw Volume 0-16 days (left paw),[4]; [17],0.62 ± 0.04
same,Increase in Right Paw Volume (ml.) 0-4 days,[4]; [17],1.03 ± 0.06 mL
same,% Change of Left Paw Edema at Day 16,"[4]; oral 10 mg/kg, Days 2,3,4",-22%
same,% Change of Right Paw Edema at Day 4,"[4]; oral 10 mg/kg, Days 2,3,4",-33%
same,Change In Body Weight (mean ± S.E.) 0-16 days,"[4]; oral 10 mg/kg, Days 2,3,4",14.7 ± 11.7
same,Increase in Paw Volume 0-16 days (left paw),"[4]; oral 10 mg/kg, Days 2,3,4",0.58 ± 0.13
same,Increase in Right Paw Volume (ml.) 0-4 days,"[4]; oral 10 mg/kg, Days 2,3,4",0.92 ± 0.07 mL
same,% Change of Left Paw Edema at Day 16,"[4]; oral 10 mg/kg, Days 8,9,10",-58%
same,Change In Body Weight (mean ± S.E.) 0-16 days,"[4]; oral 10 mg/kg, Days 8,9,10",10.5 ± 7.9
same,Increase in Paw Volume 0-16 days (left paw),"[4]; oral 10 mg/kg, Days 8,9,10",0.31 ± 0.06
same,% Change of Left Paw Edema at Day 16,[4]; [18],-65%
same,% Change of Right Paw Edema at Day 4,[4]; [18],-41%
same,Change In Body Weight (mean ± S.E.) 0-16 days,[4]; [18],18.3 ± 6.7
same,Increase in Paw Volume 0-16 days (left paw),[4]; [18],0.26 ± 0.05
same,Increase in Right Paw Volume (ml.) 0-4 days,[4]; [18],0.81 ± 0.07 mL
